Our source for the IC50 values is patent publication US9340577B2, “HLA binding motifs and peptides and their uses” (priority 1992, dated 2016).

pIC50: −log10 of the molar value. No end group written: not given here.

In general, pIC50 refers to −log10 of the IC50, conventionally taken in molar units. Low values mean a high IC50, high ones a low IC50.

Common to all, as to assay: biochemical
Experiment [1] addresses DRB1*0802 (Homo sapiens, UniProt P01903+P01911, A100R/A103L/A169T/F76Y/H45Y/I96F/K41T/L162R/M171V/P40S/Q125H/Q178H/Q39Y/Q99D/R218S/R42G/S66Y/V115G/W38E). It counts as binding.
Experiment [2] concerns the target DRB1*1201 (Homo sapiens, UniProt P01903+P01911, A100R/A169T/D57E/D86V/F55L/H45Y/K41T/L162R/M171V/P40S/Q125H/Q178H/Q39Y/Q99D/R42G/S66L/T262R/V114A/V67L/W38E/Y59H/Y61H/Y89S). It counts as binding.
Experiment [3] deals with DRB1*1302 (Homo sapiens, UniProt P01903+P01911, A100E/A169T/K41T/L162R/M171V/P40S/Q125H/Q178H/Q39Y/Q99D/R42S/S66N/T262R/V115G/W38E/Y61H). It counts as binding.
In experiment [4] the target is DRB1*1101 (Homo sapiens, UniProt P01903+P01911, A100R/A169T/A87E/I96F/K41T/L162R/M171V/P40S/Q125H/Q178H/Q39Y/Q99D/R42S/S66Y/T262R/V115G/W38E).
The target of experiment [5] is DRB5*0101 (Homo sapiens, UniProt P01903+Q30154). The following applies: Binding affinity DRB5 *0101.
Experiment [6] deals with DR7 (DRB1*0701) (Homo sapiens, UniProt P01903+P01911, A100R/A102G/A103Q/D57E/D86V/E43K/F76Y/K127E/L162R/M171V/P40G/Q125H/Q99D/R33Q/R42Y/R54Q/S133A/S66F/T210M/V115G/Y107V/Y59L/Y89S). It counts as binding.
Experiment [7] addresses DRB1*0901 (Homo sapiens, UniProt P01903+P01911, A100R/A103E/D57H/D86V/F55Y/F60I/F76Y/I96F/K127E/L162R/M171V/P40D/Q125H/Q99R/R33Q/R42F/S133A/S66N/T210M/V115G/W38K/Y107V/Y59G/Y89S). Format: binding.
In experiment [8] the target is DRB4*0101 (Homo sapiens, UniProt P01903+P13762, G164S). It counts as binding.
Experiment [9] has as its target DRB1*1501 (Homo sapiens, UniProt P01903+P01911). Format: binding.
Experiment [10] concerns the target DR1 (DRB1*0101) (Homo sapiens, UniProt P01903+P01911, A100R/D57E/F55L/F60I/F76Y/I96L/L162R/M171V/P40L/Q125E/R42F/V115G/Y59C). It counts as binding.
The target of experiment [11] is DR4w4 (DRB1*0401) (Homo sapiens, UniProt P01903+P01911, A100K/A169T/F76Y/I96L/K127E/L162R/M171V/N62H/P40V/Q125Y/R42H/S133A/S149N/S66Y/V115G/V209L/W38E). Format: binding.

Chain of DRB1*1101 (P01903 26-254 limits assumed, other chains not shown): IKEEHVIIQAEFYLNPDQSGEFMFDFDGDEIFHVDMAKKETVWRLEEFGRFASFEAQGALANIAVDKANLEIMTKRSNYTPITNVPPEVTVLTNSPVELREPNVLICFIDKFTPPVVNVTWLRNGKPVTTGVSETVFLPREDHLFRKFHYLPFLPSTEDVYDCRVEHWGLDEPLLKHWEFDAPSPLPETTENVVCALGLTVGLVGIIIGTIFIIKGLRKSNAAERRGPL
Chain of DRB1*1302 (P01903 26-254 limits assumed, other chains not shown): as above

As to PRWLCAGALVLAGGF [Peptide 68.0083], the pIC50 in [1] was < 4.70; in [2], 5.34; in experiment [3], < 4.70; in experiment [4] (Binding affinity DRB1 *1101), < 4.70; in experiment [5], < 4.70.
As for SLSLGFLFLLFFWLD [Peptide 68.0022], the pIC50 in experiment [6] was < 4.70; in experiment [1] it was < 4.70; in [7] it was < 4.70; in experiment [2] it was 5.91; in experiment [8], < 4.70; in experiment [4] ([…]) it was < 4.70. For the same compound, the pIC50 in experiment [5] was < 4.70.
Consider `CC[C@H](C)[C@H](NC(=O)[C@H](CO)NC(=O)[C@H](CO)NC(=O)[C@H](CC(=O)O)NC(=O)[C@H](C)NC(=O)[C@H](CC(N)=O)NC(=O)[C@@H](NC(=O)[C@H](Cc1ccc(O)cc1)NC(=O)[C@H](C)NC(=O)[C@@H](NC(=O)CNC(=O)[C@H](CCCNC(=N)N)NC(=O)[C@@H](N)CCC(=O)O)C(C)C)[C@@H](C)CC)C(=O)N[C@@H](CCC(=O)O)C(=O)NCC(=O)O` [Peptide 68.0109], for which the pIC50 in experiment [6], in experiment [1], in [7], in experiment [2], in [9] and in experiment [4] (Binding affinity DRB1 *1101) was < 4.70 each time.
As for IGYYDAQKLLEKMGG [Peptide 68.0103], the pIC50 in experiment [6], in experiment [7], in experiment [2] and in [4] (Binding affinity DRB1 *1101) was < 4.70 throughout.
Turning to `CSCC[C@H](NC(=O)[C@H](CCC(=O)O)NC(=O)[C@H](CCC(N)=O)NC(=O)[C@@H]1CCCN1)C(=O)N[C@@H](CCCCN)C(=O)N[C@H](C(=O)N[C@@H](Cc1ccc(O)cc1)C(=O)N[C@@H](CO)C(=O)N[C@H](C(=O)N[C@@H](CO)C(=O)N[C@@H](Cc1ccccc1)C(=O)N[C@@H](CC(=O)O)C(=O)N[C@@H](CO)C(=O)N[C@@H](CC(C)C)C(=O)N[C@@H](Cc1ccccc1)C(=O)O)C(C)C)[C@@H](C)O` [Peptide 68.0127], the pIC50 is < 4.70 in experiment [1], 5.27 in experiment [2], < 4.70 in [3] and < 4.70 in experiment [4] (Binding affinity DRB1 *1101).
As for VSFLSALKLFLKGVP [Peptide 89.0053], the pIC50 was 7.64 in [10]; 5.80 in experiment [11]; 6.54 in experiment [1]; 5.67 in experiment [7]; 7.09 in experiment [2]; 5.84 in experiment [9]. For the same compound, the results for the pIC50 in experiment [8] and in [4] (Binding affinity DRB1 *1101) were 7.64 and 7.19, respectively.
As to `CC[C@H](C)[C@H](NC(=O)[C@H](CCCCN)NC(=O)[C@H](CCSC)NC(=O)[C@H](CC(=O)O)NC(=O)[C@H](CCCNC(=N)N)NC(=O)[C@H](CCC(=O)O)NC(=O)[C@H](CC(C)C)NC(=O)[C@H](CCCCN)NC(=O)[C@H](Cc1ccccc1)NC(=O)[C@@H](N)Cc1ccccc1)C(=O)N[C@@H](CC(N)=O)C(=O)N[C@@H](CS)C(=O)N[C@@H](CO)C(=O)NCC(=O)N[C@@H](CCCCN)C(=O)O` [Peptide 68.0168], the pIC50 in [6] is < 4.70; in experiment [7], < 4.70; in experiment [2], 5.16; in [9] it was < 4.70.
As for `CC(C)C[C@H](NC(=O)CNC(=O)[C@H](Cc1ccccc1)NC(=O)[C@H](CCC(=O)O)NC(=O)[C@H](CCCCN)NC(=O)[C@@H](N)Cc1c[nH]c2ccccc12)C(=O)N[C@@H](CC(=O)O)C(=O)N[C@@H](CO)C(=O)N[C@H](C(=O)N[C@@H](CCC(=O)O)C(=O)N[C@@H](CC(C)C)C(=O)N[C@@H](C)C(=O)N[C@@H](Cc1c[nH]cn1)C(=O)N[C@@H](Cc1ccc(O)cc1)C(=O)N[C@@H](CC(=O)O)C(=O)O)C(C)C` [Peptide 68.0088], the pIC50 in [2], in [9] and in [5] was < 4.70 throughout.
For the compound LTELYFEKGEYFVEM [Peptide 68.0153], the pIC50 in experiment [7] is < 4.70; in [2], 4.90; in [9], < 4.70; in [4] (Binding affinity DRB1 *1101), < 4.70.
For `CC(C)C[C@H](NC(=O)[C@H](CCC(N)=O)NC(=O)[C@H](CC(=O)O)NC(=O)[C@H](CCC(=O)O)NC(=O)[C@H](CO)NC(=O)[C@H](CC(C)C)NC(=O)[C@@H]1CCCN1C(=O)[C@@H](NC(=O)[C@@H](N)[C@@H](C)O)C(C)C)C(=O)N[C@@H](CC(C)C)C(=O)N[C@@H](Cc1ccc(O)cc1)C(=O)N[C@@H](CC(C)C)C(=O)N1CCC[C@H]1C(=O)N[C@@H](Cc1ccccc1)C(=O)N[C@@H](CCCNC(=N)N)C(=O)O` [Peptide 68.0147], the pIC50 in [1] was < 4.70; in [7] it was < 4.70; in [2] it was 5.01; in experiment [9] it was < 4.70; in experiment [4] (Binding affinity DRB1 *1101), < 4.70; in [5] it was < 4.70.
Take `CC[C@H](C)[C@H](NC(=O)[C@H](CO)NC(=O)[C@H](CO)NC(=O)[C@H](CC(=O)O)NC(=O)[C@H](C)NC(=O)[C@H](CC(N)=O)NC(=O)[C@@H](NC(=O)[C@H](Cc1ccc(O)cc1)NC(=O)[C@H](C)NC(=O)[C@@H](N)C(C)C)[C@@H](C)CC)C(=O)N[C@@H](CCC(=O)O)C(=O)NCC(=O)N[C@@H](CC(N)=O)C(=O)N[C@@H](Cc1ccc(O)cc1)C(=O)N[C@H](C(=O)O)[C@@H](C)O` [Peptide 68.0177]: the pIC50 in experiment [1] was < 4.70; in experiment [2], 5.08; in [9], < 4.70; in experiment [4] (Binding affinity DRB1 *1101), < 4.70; in experiment [5], < 4.70.
In the case of `CC[C@H](C)[C@H](NC(=O)[C@@H](NC(=O)[C@H](Cc1c[nH]cn1)NC(=O)[C@@H](N)CC(C)C)C(C)C)C(=O)N[C@@H](CO)C(=O)N[C@@H](CC(N)=O)C(=O)N[C@@H](CC(=O)O)C(=O)N[C@H](C(=O)N[C@@H](CS)C(=O)N[C@@H](C)C(=O)N[C@@H](CCC(N)=O)C(=O)N[C@H](C(=O)N[C@@H](Cc1c[nH]cn1)C(=O)N1CCC[C@H]1C(=O)N[C@@H](CCC(N)=O)C(=O)O)C(C)C)C(C)C` [Peptide 68.0077], the negative-log IC50 (pIC50) in [1], in [7], in [2], in [9], in experiment [4] (Binding affinity DRB1 *1101) and in [5] was < 4.70 in each case.
As for `CSCC[C@H](NC(=O)[C@H](CC(C)C)NC(=O)[C@@H]1CCCN1C(=O)[C@@H](NC(=O)[C@H](CS)NC(=O)[C@H](CC(=O)O)NC(=O)[C@@H](NC(=O)[C@H](CCCNC(=N)N)NC(=O)[C@H](CC(C)C)NC(=O)[C@@H](NC(=O)[C@H](Cc1ccc(O)cc1)NC(=O)[C@@H](N)CC(N)=O)[C@@H](C)O)C(C)C)[C@@H](C)O)C(=O)N[C@@H](Cc1ccc(O)cc1)C(=O)N[C@@H](CO)C(=O)N[C@@H](CC(C)C)C(=O)O` [Peptide 68.0112], the pIC50 was < 4.70 in [6], < 4.70 in experiment [7], 6.23 in [2] and < 4.70 in experiment [5].
For ITFLGALKSFLKGTP [Peptide 89.0034], the pIC50 was 7.74 in experiment [10]; 5.53 in [6]; 5.12 in experiment [7]; 7.36 in [2]; < 4.70 in experiment [3]; 6.89 in experiment [9]. The pIC50 in experiment [8] was 5.82; in experiment [5] it was 7.72.
In the case of EDFFKLERDMKINCS [Peptide 68.0167], the pIC50 in [7], in [2] and in experiment [9] was < 4.70 throughout.
Consider `CC[C@H](C)[C@H](NC(=O)[C@H](CCC(=O)O)NC(=O)[C@H](CC(N)=O)NC(=O)CNC(=O)[C@H](CC(=O)O)NC(=O)[C@H](CCC(=O)O)NC(=O)[C@H](CC(N)=O)NC(=O)[C@@H](NC(=O)[C@@H](NC(=O)[C@H](CO)NC(=O)[C@@H](NC(=O)[C@@H](N)Cc1ccc(O)cc1)[C@@H](C)CC)[C@@H](C)CC)[C@@H](C)CC)C(=O)N[C@@H](Cc1ccccc1)C(=O)N[C@@H](CC(N)=O)C(=O)N[C@H](C(=O)O)[C@@H](C)O` [Peptide 68.0165], for which the pIC50 in experiment [6], in experiment [1], in experiment [7], in [2], in [4] (Binding affinity DRB1 *1101) and in experiment [5] was < 4.70 in each case.
